Results taken from US11396513B2, “Compositions for activating pyruvate kinase” (FORMA Therapeutics, Inc., priority 2017, dated 2022).

How the values were obtained:
[1] = molecular target: PKR(G332S) (Homo sapiens, UniProt P30613, G332S); assay: Luminescence Assay (Kinase Glo Plus), G332S PKR mutant; format: biochemical; conditions: G332S PKR mutant 10 nM; PEP 100 μM; ADP 100 μM; four parameter fit; triplicate
Description: (§1) The ability of compound 1 to activate PKR was determined using the following Luminescence Assay. The effect of phosphorylation of adenosine-5′-diphosphate (ADP) by PKR (wild type) is determined by the Kinase Glo Plus Assay (Promega) in the presence or absence of FBP [D-Fructose-1,6-diphosphate; BOC Sciences, CAS: 81028-91-3] as follows. Unless otherwise indicated, all reagents are purchased from Sigma-Aldrich. All reagents are prepared in buffer containing 50 mM Tris-HC1, 100 mM KC1, 5 mM MgC12, and 0.01% Triton X100, 0.03% BSA, and 1 mM DTT. Enzyme and PEP [Phospho(enol) pyruvic acid] are added at 2× to all wells of an assay-ready plate containing serial dilutions of test compounds or DMSO vehicle. Final enzyme concentrations for PKR(wt), PKR(R510Q), and PKR(G332S) are 0.8 nM, 0.8 nM, and 10 nM respectively. Final PEP concentration is 100 μM. The Enzyme/PEP mixture is incubated with compounds for 30 minutes at RT before the assay is initiated with the addition of 2×ADP [Adenosine-5′-diphosphate] and KinaseGloPlus. Final concentration of ADP is 100 μM. […] For assays containing FBP, that reagent is added at 30 μM upon reaction initiation. Reactions are allowed to progress for 45 minutes at RT until luminescence is recorded by the BMG PHERAstar FS Multilabel Reader. The compound is tested in triplicate at concentrations ranging from 42.5 μM to 2.2 nM in 0.83% DMSO. […]

[2] = molecular target: PKR (wild type) (Homo sapiens, UniProt P30613); assay: Luminescence Assay (Kinase Glo Plus), PKR wild type; format: biochemical
Description: as §1

Chain of PKR (wild type) (P30613 whole entry): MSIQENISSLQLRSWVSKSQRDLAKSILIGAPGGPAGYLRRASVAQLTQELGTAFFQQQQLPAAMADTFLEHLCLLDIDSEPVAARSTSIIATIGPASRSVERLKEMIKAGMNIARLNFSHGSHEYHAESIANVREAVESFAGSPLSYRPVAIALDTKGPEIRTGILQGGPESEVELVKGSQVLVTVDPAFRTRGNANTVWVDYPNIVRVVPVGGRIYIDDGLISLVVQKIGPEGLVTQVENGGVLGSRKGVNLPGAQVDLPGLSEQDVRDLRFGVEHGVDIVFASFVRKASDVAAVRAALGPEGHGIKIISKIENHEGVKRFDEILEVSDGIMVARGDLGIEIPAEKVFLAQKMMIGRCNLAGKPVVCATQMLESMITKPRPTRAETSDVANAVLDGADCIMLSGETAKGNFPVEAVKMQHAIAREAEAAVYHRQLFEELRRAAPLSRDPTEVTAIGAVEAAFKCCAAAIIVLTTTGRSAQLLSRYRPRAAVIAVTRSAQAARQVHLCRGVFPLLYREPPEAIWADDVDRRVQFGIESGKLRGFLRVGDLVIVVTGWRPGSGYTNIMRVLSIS
Chain of PKR(G332S) (P30613 whole entry G332S): as the sequence (P30613 whole entry) above, with G332S counted along it

AC50 [1]: 100 to 1000 nM
AC50 ([2]; Luminescence Assay, PKR form not specified, definition of PKR Activator Compound): < 1000 nM
AC50 ([2]; PKR wild type enzyme 0.8 nM, PEP 100 μM, ADP 100 μM, four parameter fit, triplicate): 100 to 1000 nM
Structure (SMILES): CC(C)(O)C(=O)N1CC2=C(C1)CN(S(=O)(=O)c1ccc3c(c1)NCCO3)C2 [compound 1, 1-(5-((3,4-Dihydro-2H-benzo[b][1,4]oxazin-6-yl)sulfonyl)-3,4,5,6-tetrahydropyrrolo[3,4-c]pyrrol-2(1H)-yl)-2-hydroxy-2-methylpropan-1-one]
